Data from patent US20040253277A1, “Anaesthetic formulations of propofol” (priority 2001, published 2004).
Values after ≈ are worked out from the molar mass of the structure shown.

Legend:
[1] = in vivo; cited from earlier work
[2] = physchem; conditions: water, thermodynamic from solid
Description: Analyses were performed using the Perkin Elmer Lambda 5 UV/V is Spectrophotometer.
Two sets of standards were prepared by serial dilution of:
1. 10% poloxamer P407/1% Propofol solution in water.
2. 1% Propofol solution in ethanol (EtOH).
Dilutions were performed with water and EtOH respectively. The standards were further diluted one hundred fold prior to measurement of their UV absorption spectra recorded.

In the case of `CC(C)c1cccc(C(C)C)c1O` [Propofol, 2,6-bis(1-methylethyl)phenol; 2,6-diisopropylphenol], the “dose required for long term infusion for anaesthesia” value [1] is listed as 4-12 mg/kg per hour, the “time of maximum effect after dosing” value [1] is listed as “within about one minute” and the solubility thermodynamic [2] is listed as about 1000 µM (≈ 178 µg/mL).
